{"source": "patent US20240217957A1", "about": "“HETEROCYCLIC COMPOUND AND USE THEREOF” (TAKEDA PHARMACEUTICAL COMPANY LIMITED, priority 2022, published 2024)"}
{"biological_target": "T1, human OX2 receptor (Homo sapiens, UniProt O43614)", "T1 construct": "expressed in transfected cells", "T1 sequence (O43614 1-444)": "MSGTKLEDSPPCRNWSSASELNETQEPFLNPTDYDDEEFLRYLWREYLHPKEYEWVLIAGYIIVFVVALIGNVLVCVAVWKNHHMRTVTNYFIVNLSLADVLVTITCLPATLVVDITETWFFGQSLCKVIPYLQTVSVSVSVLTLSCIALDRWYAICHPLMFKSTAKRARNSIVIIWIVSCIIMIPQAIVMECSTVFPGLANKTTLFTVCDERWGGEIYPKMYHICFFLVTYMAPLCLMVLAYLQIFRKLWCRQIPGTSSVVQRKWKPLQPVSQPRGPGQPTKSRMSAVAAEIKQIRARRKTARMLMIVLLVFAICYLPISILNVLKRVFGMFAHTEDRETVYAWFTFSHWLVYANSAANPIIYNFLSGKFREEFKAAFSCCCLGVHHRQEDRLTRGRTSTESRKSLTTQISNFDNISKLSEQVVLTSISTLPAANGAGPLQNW", "assay": "Measurement of orexin type 2 receptor agonist activity (calcium fluorescence, Fluo-4 AM, FDSS)", "format": "cell-based", "conditions": "compound at 3 μM; CHO cells forcibly expressing human OX2 receptor; DMSO = 0%, 10 nM orexin A (human) = 100%", "method_in_brief": "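CHO-K1 cells stably expressing human OX2 receptor (residues 1-444) loaded with Fluo-4 AM in HBSS/20 mM HEPES/0.1% BSA with probenecid, 30 min at 37° C. then 30 min at room temperature. After compound addition, calcium fluorescence read for 1 min 40 s; activity (%) scaled to DMSO (0%) and 10 nM orexin A (100%).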", "units": {"OX2R agonist activity (3 μM, %)": "%"}}
{"smiles": "CS(=O)(=O)N[C@@H]1CN(C2=NOC(c3ncc(Br)cc3-c3c(F)cccc3F)C2)CC1(F)F", "note": "(stereo partly drawn) [Example 52, N-[(3R)-1-{5-[5-bromo-3-(2,6-difluorophenyl)pyridin-2-yl]-4,5-dihydro-1,2-oxazol-3-yl}-4,4-difluoropyrrolidin-3-yl]methanesulfonamide]", "OX2R agonist activity (3 μM, %)": 93}
{"smiles": "Cc1cnc([C@@H]2CC(N3C[C@@H](NS(C)(=O)=O)C(F)(F)C3)=NO2)c(-c2c(F)cc(Cl)cc2F)c1", "note": "[Example 53, N-[(3R)-1-{5-[3-(4-chloro-2,6-difluorophenyl)-5-methylpyridin-2-yl]-4,5-dihydro-1,2-oxazol-3-yl}-4,4-difluoropyrrolidin-3-yl]methanesulfonamide]", "OX2R agonist activity (3 μM, %)": 98}
{"smiles": "Cc1cnc([C@@H]2CC(N3C[C@@H](NS(C)(=O)=O)C(F)(F)C3)=NO2)c(-c2c(F)ccc(F)c2F)c1", "note": "[Example 54, N-[(3R)-4,4-difluoro-1-{5-[5-methyl-3-(2,3,6-trifluorophenyl)pyridin-2-yl]-4,5-dihydro-1,2-oxazol-3-yl}pyrrolidin-3-yl]methanesulfonamide]", "OX2R agonist activity (3 μM, %)": 92}
{"smiles": "Cc1cnc([C@@H]2CC(N3C[C@@H](NS(=O)(=O)C4CC4)C(F)(F)C3)=NO2)c(-c2c(F)cc(F)cc2F)c1", "note": "[Example 55, N-[(3R)-4,4-difluoro-1-{(5S)-5-[5-methyl-3-(2,4,6-trifluorophenyl)pyridin-2-yl]-4,5-dihydro-1,2-oxazol-3-yl}pyrrolidin-3-yl]cyclopropanesulfonamide]", "OX2R agonist activity (3 μM, %)": 104}
{"smiles": "Cc1cnc([C@@H]2CC(N3CC[C@H](NS(=O)(=O)CF)C3)=NO2)c(-c2c(F)cc(F)cc2F)c1", "note": "[Example 56, 1-fluoro-N-[(3S)-1-{(5S)-5-[5-methyl-3-(2,4,6-trifluorophenyl)pyridin-2-yl]-4,5-dihydro-1,2-oxazol-3-yl}pyrrolidin-3-yl]methanesulfonamide]", "OX2R agonist activity (3 μM, %)": 92}
{"smiles": "Cc1cnc([C@@H]2CC(N3C[C@H](F)[C@H](NS(C)(=O)=O)C3)=NO2)c(-c2c(F)cc(F)cc2F)c1", "note": "[Example 57, N-[(3R,4S)-4-fluoro-1-{(5S)-5-[5-methyl-3-(2,4,6-trifluorophenyl)pyridin-2-yl]-4,5-dihydro-1,2-oxazol-3-yl}pyrrolidin-3-yl]methanesulfonamide]", "OX2R agonist activity (3 μM, %)": 105}
{"smiles": "Cc1cnc([C@@H]2CC(N3C[C@@H](NS(=O)(=O)CF)C(F)(F)C3)=NO2)c(-c2c(F)cc(F)cc2F)c1", "note": "[Example 58, N-[(3R)-4,4-difluoro-1-{(5S)-5-[5-methyl-3-(2,4,6-trifluorophenyl)pyridin-2-yl]-4,5-dihydro-1,2-oxazol-3-yl}pyrrolidin-3-yl]-1-fluoromethanesulfonamide]", "OX2R agonist activity (3 μM, %)": 103}
{"smiles": "Cc1cnc(C2(C(F)F)CC(N3C[C@@H](NS(C)(=O)=O)C(F)(F)C3)=NO2)c(-c2c(F)cccc2F)c1", "note": "(stereo partly drawn) [Example 59, N-[(3R)-1-{5-(difluoromethyl)-5-[3-(2,6-difluorophenyl)-5-methylpyridin-2-yl]-4,5-dihydro-1,2-oxazol-3-yl}-4,4-difluoropyrrolidin-3-yl]methanesulfonamide]", "OX2R agonist activity (3 μM, %)": 101}
{"smiles": "Cc1cnc([C@@H]2CC(N3C[C@@H](NS(=O)(=O)C(F)F)C(F)(F)C3)=NO2)c(-c2c(F)cc(F)cc2F)c1", "note": "[Example 60, N-[(3R)-4,4-difluoro-1-{(5S)-5-[5-methyl-3-(2,4,6-trifluorophenyl)pyridin-2-yl]-4,5-dihydro-1,2-oxazol-3-yl}pyrrolidin-3-yl]-1,1-difluoromethanesulfonamide]", "OX2R agonist activity (3 μM, %)": 105}
{"smiles": "Cc1cnc(C2CC(N3C[C@@H](NS(C)(=O)=O)C(F)(F)C3)=NO2)c(-c2c(F)cccc2Cl)c1", "note": "(stereo partly drawn) [Example 61, N-[(3R)-1-{5-[3-(2-chloro-6-fluorophenyl)-5-methylpyridin-2-yl]-4,5-dihydro-1,2-oxazol-3-yl}-4,4-difluoropyrrolidin-3-yl]methanesulfonamide]", "OX2R agonist activity (3 μM, %)": 98}
{"smiles": "Cc1cnc([C@@H]2CC(N3C[C@@H](C)[C@H](NS(C)(=O)=O)C3)=NO2)c(-c2c(F)cc(F)cc2F)c1", "note": "[Example 63, N-[(3S,4R)-4-methyl-1-{(5S)-5-[5-methyl-3-(2,4,6-trifluorophenyl)pyridin-2-yl]-4,5-dihydro-1,2-oxazol-3-yl}pyrrolidin-3-yl]methanesulfonamide]", "OX2R agonist activity (3 μM, %)": 101}
{"smiles": "Cc1cnc([C@@H]2CC(N3CC(F)(F)C(C)(NS(C)(=O)=O)C3)=NO2)c(-c2c(F)cc(F)cc2F)c1", "note": "(stereo partly drawn) [Example 64, N-(4,4-difluoro-3-methyl-1-{(5S)-5-[5-methyl-3-(2,4,6-trifluorophenyl)pyridin-2-yl]-4,5-dihydro-1,2-oxazol-3-yl}pyrrolidin-3-yl)methanesulfonamide]", "OX2R agonist activity (3 μM, %)": 100}
{"smiles": "Cc1cnc([C@@H]2CC(N3C[C@@H](F)[C@H](NS(=O)(=O)CF)C3)=NO2)c(-c2c(F)cccc2F)c1", "note": "[Example 65, N-[(3R,4R)-1-{(5S)-5-[3-(2,6-difluorophenyl)-5-methylpyridin-2-yl]-4,5-dihydro-1,2-oxazol-3-yl}-4-fluoropyrrolidin-3-yl]-1-fluoromethanesulfonamide]", "OX2R agonist activity (3 μM, %)": 97}
{"smiles": "Cc1cnc([C@@H]2CC(N3CC[C@H](NS(=O)(=O)C(F)F)C3)=NO2)c(-c2c(F)cc(F)cc2F)c1", "note": "[Example 66, 1,1-difluoro-N-[(3S)-1-{(5S)-5-[5-methyl-3-(2,4,6-trifluorophenyl)pyridin-2-yl]-4,5-dihydro-1,2-oxazol-3-yl}pyrrolidin-3-yl]methanesulfonamide]", "OX2R agonist activity (3 μM, %)": 99}
{"smiles": "O=S(=O)(N[C@@H]1CN(C2=NOC(c3ncc(F)cc3-c3c(F)cccc3F)C2)CC1(F)F)C1CC1", "note": "(stereo partly drawn) [Example 67, N-[(3R)-1-{5-[3-(2,6-difluorophenyl)-5-fluoropyridin-2-yl]-4,5-dihydro-1,2-oxazol-3-yl}-4,4-difluoropyrrolidin-3-yl]cyclopropanesulfonamide]", "OX2R agonist activity (3 μM, %)": 98}
{"smiles": "Cc1cnc([C@@H]2CC(N3C[C@H](F)[C@H](NS(=O)(=O)CF)C3)=NO2)c(-c2c(F)cccc2F)c1", "note": "[Example 68, N-[(3R,4S)-1-{(5S)-5-[3-(2,6-difluorophenyl)-5-methylpyridin-2-yl]-4,5-dihydro-1,2-oxazol-3-yl}-4-fluoropyrrolidin-3-yl]-1-fluoromethanesulfonamide]", "OX2R agonist activity (3 μM, %)": 104}
{"smiles": "CS(=O)(=O)N[C@@H]1CN(C2=NOC(c3ncc(F)cc3-c3c(F)cccc3F)C2)CC1(F)F", "note": "(stereo partly drawn) [Example 69, N-[(3R)-1-{5-[3-(2,6-difluorophenyl)-5-fluoropyridin-2-yl]-4,5-dihydro-1,2-oxazol-3-yl}-4,4-difluoropyrrolidin-3-yl]methanesulfonamide]", "OX2R agonist activity (3 μM, %)": 95}
{"smiles": "CS(=O)(=O)N[C@@H]1CN(C2=NOC(c3ncc(F)cc3-c3c(F)cc(F)cc3F)C2)CC1(F)F", "note": "(stereo partly drawn) [Example 70, N-[(3R)-4,4-difluoro-1-{5-[5-fluoro-3-(2,4,6-trifluorophenyl)pyridin-2-yl]-4,5-dihydro-1,2-oxazol-3-yl}pyrrolidin-3-yl]methanesulfonamide]", "OX2R agonist activity (3 μM, %)": 94}
{"smiles": "COCC1(NS(C)(=O)=O)CCN(C2=NO[C@H](c3ncc(C)cc3-c3c(F)cccc3F)C2)C1", "note": "(stereo partly drawn) [Example 73, N-[1-{(5S)-5-[3-(2,6-difluorophenyl)-5-methylpyridin-2-yl]-4,5-dihydro-1,2-oxazol-3-yl}-3-(methoxymethyl)pyrrolidin-3-yl]methanesulfonamide]", "OX2R agonist activity (3 μM, %)": 102}
{"smiles": "Cc1cnc([C@@H]2CC(O[C@H]3C[C@H](NS(C)(=O)=O)C3)=NO2)c(-c2c(F)cc(F)cc2F)c1", "note": "[Example 74, N-[(1s,3r)-3-({(5S)-5-[5-methyl-3-(2,4,6-trifluorophenyl)pyridin-2-yl]-4,5-dihydro-1,2-oxazol-3-yl}oxy)cyclobutyl]methanesulfonamide]", "OX2R agonist activity (3 μM, %)": 58}
{"smiles": "Cc1cnc(C2(C)CC(N3C[C@@H](NS(C)(=O)=O)C(F)(F)C3)=NO2)c(-c2c(F)cccc2F)c1", "note": "(stereo partly drawn) [Example 76, N-[(3R)-1-{5-[3-(2,6-difluorophenyl)-5-methylpyridin-2-yl]-5-methyl-4,5-dihydro-1,2-oxazol-3-yl}-4,4-difluoropyrrolidin-3-yl]methanesulfonamide]", "OX2R agonist activity (3 μM, %)": 108}
{"smiles": "Cc1cnc([C@@H]2CC(N3C[C@@H](F)[C@H](NS(=O)(=O)N(C)C)C3)=NO2)c(-c2c(F)cc(F)cc2F)c1", "note": "[Example 77, N′-[(3R,4R)-4-fluoro-1-{(5S)-5-[5-methyl-3-(2,4,6-trifluorophenyl)pyridin-2-yl]-4,5-dihydro-1,2-oxazol-3-yl}pyrrolidin-3-yl]-N,N-dimethylsulfuric diamide]", "OX2R agonist activity (3 μM, %)": 102}
{"smiles": "Cc1cnc([C@@H]2CC(N3C[C@@H](F)[C@H](NS(=O)(=O)N(C)C)C3)=NO2)c(-c2c(F)cccc2F)c1", "note": "[Example 78, N′-[(3R,4R)-1-{(5S)-5-[3-(2,6-difluorophenyl)-5-methylpyridin-2-yl]-4,5-dihydro-1,2-oxazol-3-yl}-4-fluoropyrrolidin-3-yl]-N,N-dimethylsulfuric diamide]", "OX2R agonist activity (3 μM, %)": 102}
